From patent US7183316B2, “Treatment of HPV caused diseases” (Cornell Research Foundation, Inc., priority 2001, dated 2007)

How the values were obtained:
HPV16 E6 mRNA = test: Northern blotting for HPV16 E6 mRNA in CaSki cells; format: cell-based; details: for levels of HPV16 E6 mRNA (Northern blot): CaSki cells, 24 hours incubation, concentration series in μM; for HPV16 E6 mRNA (Northern blot): Background Example 7: CaSki cells, 24 hours, curcumin 5 μM, resveratrol 15 μM, ciglitazone 20 μM, 15d-PGJ2 15 μM
Protocol: (§1) Celebrex™ at concentrations of 0, 0.1, 0.25, 0.5, 1.0, 2.5 and 5.0 μM was incubated with CaSki cell (3.0×10^6 in a 10 cm diameter dish) for 24 hours.
Curcumin (5 μM), resveratrol (15 μM), ciglitazone (20 μM) or 15d-PGJ2 (15 μM) were incubated with CaSki cells (3×10^6 in a 10 cm diameter dish) for 24 hours.
Northern blot testing was carried our for HPV16 E6 mRNA.

HPV16 E7 protein = test: Western blotting for HPV16 E7 protein in CaSki cells; format: cell-based; details: 24 hours incubation, concentration series in μM
Protocol: (§2) Ciglitazone was incubated with CaSki cells (prototypic cervical cancer cells known to be infected with HPV16). The number of CaSki cells was 3×10^6 in a 10 cm diameter dish. Incubation were carried out for 24 hours with 0, 1, 5, 10 and 20 μM ciglitazone.
(§3) Western blotting was carried out to determine levels of HPV16 E7 protein. […] Northern blotting was carried out to determine levels of HPV16 E7 mRNA. […] Nuclear run-off testing was carried out to determine level of gene transcription.
as §1

HPV16 E7 mRNA [1] = test: EGF-mediated induction of HPV16 E7 mRNA in CaSki cells (Northern blot); format: cell-based; details: for EGF-mediated induction of HPV16 E7 mRNA (Northern blot): Background Example 5: EGF 10 nanograms/ml, 50 or 100 μM sulindac sulfide, 15 μM ciglitazone, 15 μM 15d-PGJ2; for EGF-mediated induction of HPV16 E7 (Northern blot, mRNA): Background Example 6: EGF 10 nanograms/ml, 100 μM NSAID, 25 μM 15d-PGJ2
Protocol: Epidermal growth factor at 10 nanograms/ml was added to CaSki cells (3×10^6 in a 10 cm diameter dish) together with 50 μM sulindac sulfide or 100 μM sulindac sulfide or 15 μM ciglitazone or 15 μM 15d-PGJ2.
Northern blot testing was carried out for HPV16 E7 mRNA.
Epidermal growth factor (EGF) at 10 nanograms/ml was incubated with CaSki cells (3×10^6 in a 10 cm diameter dish) and 100 μM ibuprofen, 100 μM piroxicam, 100 μM S-naproxen, 100 μM aspirin, 100 μM sulindac sulfone, 100 μM sulindac sulfide, 100 μM naproxen, 100 μM indomethacin, 100 μM flufenamic acid and for comparison purposes 25 μM 15d-PGJ2.

[2] = tested on: HPV16 upstream regulatory region (URR); test: HPV16 upstream regulatory region luciferase reporter transfected into CaSki cells; format: cell-based; details: 24 hours, 0-25 μM, FIG. 1
Protocol: HPV16 upstream regulatory region (URR) ligated to luciferase gene transfected into CaSki cells is incubated for 24 hours with ciglitazone and with 15d-PGJ2 (in each case, concentration of 0 μM, 5 μM, 10 μM, 15 μM, 20 μM and 25 μM). […] Note that cells contain endogenous activator that drives expression of E7, and ciglitazone and 15d-PGJ2 are shown to inhibit the activation.

HPV16 E7 mRNA [3] = test: Northern blotting for HPV16 E7 mRNA in CaSki cells; format: cell-based; details: 24 hours incubation, concentration series in μM
Protocol: as §2, §3
NS-398 at concentrations of 0, 10, 20, 40, 60, 100, 250 and 500 μM was incubated with CaSki cells (3×10^6 in a 10 cm diameter dish) for 24 hours.
Northern blotting was carried out to determine HPV16 E7 mRNA levels in each case.

HPV16 [4] = test: Treatment of patient with cervical intraepithelial neoplasia; format: in vivo, human; details: 25 mg orally each day for six months
Protocol: A person presents to their gynecologist for evaluation. […] On biopsy, the patient is found to have cervical intraepithelial neoplasia. HPV16 is detected. Treatment with Vioxx™ 25 mg orally each day is begun and given for six months. […] The Vioxx™ is discontinued with no recurrence of cervical intraepithelial neoplasia.

HPV16 [5] = test: Treatment of patient with metastasized cervical cancer; format: in vivo, human; details: 50 mg orally three times a day for 12 months plus radiation therapy after hysterectomy
Protocol: A person seeks gynecologic evaluation because of pelvic pain. On pelvic examination, a cervical mass is detected. […] The patient undergoes a hysterectomy along with resection of regional lymph nodes. […] HPV16 is detected. The patient is treated with a course of radiation therapy plus indomethacin 50 mg orally three times a day for 12 months. […] The indomethacin is discontinued.

[6] = tested on: HPV mediated cutaneous warts; test: Topical treatment of patient with HPV mediated cutaneous warts; format: in vivo, human; details: ointment containing 5%, twice a day, three months
Source text: A child presents to a local dermatologist because of small cutaneous growths on the hand. A diagnosis of HPV mediated cutaneous warts is made. The patient is instructed to apply an ointment containing 5% rosiglitazone to the affected areas twice a day. […] The same results occur with an ointment containing 5% resveratrol instead of the ointment containing rosiglitazone.

SMILES	levels of HPV16 E6 mRNA (Northern blot) (HPV16 E6 mRNA)	levels of HPV16 E7 protein (Western blot) (HPV16 E7 protein)	EGF-mediated induction of HPV16 E7 (Northern blot, mRNA) (HPV16 E7 mRNA [1])	further results
NS(=O)(=O)c1ccc(-n2nc(C(F)(F)F)cc2-c2ccccc2)cc1 [4-[5-Phenyl-3-(trifluoromethyl)-1H-pyrazol-1-yl]benzenesulfonamide]	suppression	suppression	–	–
CCCCC/C=C/C=C1/C(=O)C=C[C@@H]1C/C=C\CCCC(=O)O [15d-PGJ2, 15-deoxy-Δ12,14-prostaglandin J2]	–	–	inhibition	HPV16 E6 mRNA (Northern blot) (HPV16 E6 mRNA): downregulation; EGF-mediated induction of HPV16 E7 mRNA (Northern blot) (HPV16 E7 mRNA [1]): inhibition; luciferase activity of HPV16 upstream regulatory region [2]: dose dependent inhibition
Cc1ccc(-c2cc(C(F)(F)F)nn2-c2ccc(S(N)(=O)=O)cc2)cc1 [Celebrex™, 4-[5-(4-methylphenyl)-3-(trifluoromethyl)-1H-pyrazol-1-yl]benzenesulfonamide]	dose dependent suppression	dose dependent suppression	–	–
CS(=O)(=O)c1ccc(-c2cc(Br)sc2-c2ccc(F)cc2)cc1 [DuP-697, 5-bromo-2-(4-fluorophenyl)-3-(4-(methylsulfonyl)phenyl)thiophene]	suppression	suppression	–	–
CCCCCCCOC(=O)Cc1c(C)n(C(=O)c2ccc(Cl)cc2)c2ccc(OC)cc12 [Indomethacin heptyl ester]	dose dependent suppression	dose dependent suppression	–	–
COc1ccc2c(c1)c(CC(=O)NCCc1ccccc1)c(C)n2C(=O)c1ccc(Cl)cc1 [N-(2-phenylethyl)-indomethacin amide]	dose dependent suppression	dose dependent suppression	–	–
CS(=O)(=O)Nc1ccc([N+](=O)[O-])cc1OC1CCCCC1 [NS-398, N-[2-(cylohexyloxy)-4-nitrophenyl]-methanesulfonamide]	–	–	–	levels of HPV16 E7 mRNA (Northern blot) (HPV16 E7 mRNA [3]): dose dependent suppression
COc1ccc2cc([C@H](C)C(=O)O)ccc2c1 [S-naproxen]	–	–	not	–
NS(=O)(=O)c1ccc(-n2nc(C(F)(F)F)cc2-c2ccc(Cl)cc2)cc1 [SC-236]	dose dependent suppression	dose dependent suppression	–	–
COc1ccc(-n2nc(C(F)(F)F)cc2-c2ccc(Cl)cc2)cc1 [SC-560, 5-(4-chlorophenyl)-1-(4-methoxyphenyl)-3-(trifluoromethyl)-1H-pyrazole]	suppression	suppression	–	cervical intraepithelial neoplasia on repeat biopsy (HPV16 [4]): no evidence of cervical intraepithelial neoplasia
CS(=O)(=O)c1ccc(-n2nc(C(F)(F)F)cc2-c2ccc(F)cc2)cc1 [SC-58125, 4-[5-(4-fluorophenyl)-3-(trifluoromethyl)-1H-pyrazol-1-yl]benzenemethylsulfone]	suppression	suppression	–	–
CS(=O)(=O)c1ccc(C2=C(c3ccccc3)C(=O)OC2)cc1 [Vioxx™, 3-(phenyl)-4-(4-(methylsulfonyl)phenyl)-2-(5H)-furanone]	–	–	–	cervical intraepithelial neoplasia on repeat biopsy (HPV16 [4]): no further evidence of cervical intraepithelial neoplasia
CC(=O)Oc1ccccc1C(=O)O [aspirin]	–	–	not	–
COc1cc(/C=C/C(=O)CC(=O)/C=C/c2ccc(O)c(OC)c2)ccc1O [curcumin]	–	–	–	HPV16 E6 mRNA (Northern blot) (HPV16 E6 mRNA): downregulation
O=C(O)c1ccccc1Nc1cccc(C(F)(F)F)c1 [flufenamic acid]	–	–	inhibition	–
CC(C)Cc1ccc(C(C)C(=O)O)cc1 (stereo not shown) [ibuprofen]	–	–	not	–
COc1ccc2c(c1)c(CC(=O)O)c(C)n2C(=O)c1ccc(Cl)cc1 [indomethacin]	–	–	inhibition	repeat CAT scan, cervical cancer (HPV16 [5]): no evidence of disease
COc1ccc2cc([C@H](C)C(=O)O)ccc2c1 [naproxen]	–	–	inhibition	–
CN1C(C(=O)Nc2ccccn2)=C(O)c2ccccc2S1(=O)=O [piroxicam]	–	–	not	–
Oc1ccc(C=Cc2cc(O)cc(O)c2)cc1 [resveratrol]	–	–	–	HPV16 E6 mRNA (Northern blot) (HPV16 E6 mRNA): downregulation; cutaneous warts after topical treatment [6]: same results
CSc1ccc(/C=C2/C(C)=C(CC(=O)O)c3cc(F)ccc32)cc1 [sulindac sulfide]	–	–	inhibition	EGF-mediated induction of HPV16 E7 mRNA (Northern blot) (HPV16 E7 mRNA [1]): inhibition
CC1=C(CC(=O)O)c2cc(F)ccc2/C1=C\c1ccc(S(C)(=O)=O)cc1 [sulindac sulfone]	–	–	inhibition	–
